Assay results from ChEMBL document CHEMBL1201862, “PubChem BioAssay data set” (2004).
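Exposure lasted 48 hours, with cells grown in 96-well plates and compounds tested at five concentrations. The concentration for 50% growth inhibition is given as GI50.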 Active and inactive are the calls of the source. Rule as the data show it: active = GI50 up to about 1.1 µM and inactive = higher.

Assays:
Experiment in all cases: NCI-60 cell line screen, 48 h
HCC 2998 = tested on: HCC 2998
RXF 393 = tested on: RXF 393
A498 = tested on: A498
U-251 = tested on: U-251
IGROV-1 = tested on: IGROV-1
TK-10 = tested on: TK-10
OVCAR-5 = tested on: OVCAR-5
HT-29 = tested on: HT-29
COLO 205 = tested on: COLO 205
T47D = tested on: T47D
786-0 = tested on: 786-0
NCI/ADR-RES = tested on: NCI/ADR-RES
DU-145 = tested on: DU-145
MCF7 = tested on: MCF7
UACC-62 = tested on: UACC-62
NCI-H460 = tested on: NCI-H460
M14 = tested on: M14
SF-295 = tested on: SF-295
PC-3 = tested on: PC-3
Malme-3M = tested on: Malme-3M
SK-MEL-5 = tested on: SK-MEL-5
SNB-19 = tested on: SNB-19
A549 = tested on: A549
HOP-92 = tested on: HOP-92
OVCAR-3 = tested on: OVCAR-3
NCI-H226 = tested on: NCI-H226
NCI-H23 = tested on: NCI-H23
EKVX = tested on: EKVX
BT-549 = tested on: BT-549
MDA-MB-435 = tested on: MDA-MB-435
K562 = tested on: K562
HCT-116 = tested on: HCT-116
SW-620 = tested on: SW-620
Hs-578T = tested on: Hs-578T
KM12 = tested on: KM12
RPMI-8226 = tested on: RPMI-8226
SK-MEL-2 = tested on: SK-MEL-2
MDA-N = tested on: MDA-N
UACC-257 = tested on: UACC-257
MDA-MB-231 = tested on: MDA-MB-231
SN12C = tested on: SN12C
HOP-62 = tested on: HOP-62
HCT-15 = tested on: HCT-15
MOLT-4 = tested on: MOLT-4
UO-31 = tested on: UO-31
SNB-75 = tested on: SNB-75
CCRF-CEM = tested on: CCRF-CEM
SF-539 = tested on: SF-539
CAKI-1 = tested on: CAKI-1
SF-268 = tested on: SF-268
OVCAR-4 = tested on: OVCAR-4
ACHN = tested on: ACHN
NCI-H522 = tested on: NCI-H522
LOX IMVI = tested on: LOX IMVI
OVCAR-8 = tested on: OVCAR-8
SK-OV-3 = tested on: SK-OV-3
SR = tested on: SR

## OCC1OC(n2cnc3c(Cl)nc(Nc4ccccc4)nc32)CC1O (configuration not stated)
HCC 2998
  GI50: 17.8 µM (inactive)
RXF 393
  GI50: 57.1 µM (inactive)
A498
  GI50: 70 µM (inactive)
U-251
  GI50: > 100 µM (inactive)
IGROV-1
  GI50: 25.4 µM (inactive)
TK-10
  GI50: > 100 µM (inactive)
OVCAR-5
  GI50: > 100 µM (inactive)
HT-29
  GI50: > 100 µM (inactive)
COLO 205
  GI50: > 100 µM (inactive)
T47D
  GI50: > 100 µM (inactive)
786-0
  GI50: > 100 µM (inactive)
NCI/ADR-RES
  GI50: > 100 µM (inactive)
DU-145
  GI50: > 100 µM (inactive)
MCF7
  GI50: > 100 µM (inactive)
UACC-62
  GI50: 40.5 µM (inactive)
NCI-H460
  GI50: 49.9 µM (inactive)
M14
  GI50: 60.1 µM (inactive)
SF-295
  GI50: > 100 µM (inactive)
PC-3
  GI50: > 100 µM (inactive)
Malme-3M
  GI50: 18.7 µM (inactive)
SK-MEL-5
  GI50: > 100 µM (inactive)
SNB-19
  GI50: > 100 µM (inactive)
A549
  GI50: 17.7 µM (inactive)
HOP-92
  GI50: 2.74 µM (inactive)
OVCAR-3
  GI50: 75.5 µM (inactive)
NCI-H226
  GI50: > 100 µM (inactive)
NCI-H23
  GI50: 29.3 µM (inactive)
EKVX
  GI50: 2.94 µM (inactive)
BT-549
  GI50: 35.6 µM (inactive)
MDA-MB-435
  GI50: 60.1 µM (inactive)
K562
  GI50: 32.7 µM (inactive)
HCT-116
  GI50: > 100 µM (inactive)
SW-620
  GI50: > 100 µM (inactive)
Hs-578T
  GI50: 35.2 µM (inactive)
KM12
  GI50: > 100 µM (inactive)
RPMI-8226
  GI50: > 100 µM (inactive)
SK-MEL-2
  GI50: 45.7 µM (inactive)
MDA-N
  GI50: 75.5 µM (inactive)
UACC-257
  GI50: 59.3 µM (inactive)
MDA-MB-231
  GI50: 31.2 µM (inactive)
SN12C
  GI50: > 100 µM (inactive)
HOP-62
  GI50: > 100 µM (inactive)
HCT-15
  GI50: 20.8 µM
MOLT-4
  GI50: 23.6 µM (inactive)
UO-31
  GI50: 18 µM (inactive)
SNB-75
  GI50: 42.6 µM (inactive)
CCRF-CEM
  GI50: 26.1 µM (inactive)
SF-539
  GI50: > 100 µM (inactive)
CAKI-1
  GI50: 1.77 µM (inactive)
SF-268
  GI50: 65.6 µM (inactive)
OVCAR-4
  GI50: 25.4 µM (inactive)
ACHN
  GI50: 17.3 µM (inactive)
NCI-H522
  GI50: 5.2 µM (inactive)
LOX IMVI
  GI50: 19.2 µM (inactive)
OVCAR-8
  GI50: > 100 µM (inactive)
SK-OV-3
  GI50: > 100 µM (inactive)

## Cc1nc2c(=O)n(-c3ccccc3)c(=O)n(-c3ccccc3)c2o1
HCC 2998
  GI50: > 100 µM (inactive)
RXF 393
  GI50: > 100 µM (inactive)
A498
  GI50: > 100 µM (inactive)
U-251
  GI50: > 100 µM (inactive)
IGROV-1
  GI50: > 100 µM (inactive)
TK-10
  GI50: 58.3 µM (inactive)
OVCAR-5
  GI50: > 100 µM (inactive)
HT-29
  GI50: > 100 µM (inactive)
COLO 205
  GI50: > 100 µM (inactive)
T47D
  GI50: > 100 µM (inactive)
786-0
  GI50: > 100 µM (inactive)
SR
  GI50: > 100 µM (inactive)
NCI/ADR-RES
  GI50: > 100 µM (inactive)
MCF7
  GI50: > 100 µM (inactive)
UACC-62
  GI50: > 100 µM (inactive)
NCI-H460
  GI50: > 100 µM (inactive)
M14
  GI50: > 100 µM (inactive)
SF-295
  GI50: > 100 µM (inactive)
PC-3
  GI50: > 100 µM (inactive)
Malme-3M
  GI50: > 100 µM (inactive)
SK-MEL-5
  GI50: > 100 µM (inactive)
SNB-19
  GI50: > 100 µM (inactive)
A549
  GI50: > 100 µM (inactive)
HOP-92
  GI50: > 100 µM (inactive)
OVCAR-3
  GI50: > 100 µM (inactive)
NCI-H226
  GI50: > 100 µM (inactive)
NCI-H23
  GI50: > 100 µM (inactive)
EKVX
  GI50: > 100 µM (inactive)
BT-549
  GI50: > 100 µM (inactive)
MDA-MB-435
  GI50: > 100 µM (inactive)
K562
  GI50: > 100 µM (inactive)
HCT-116
  GI50: > 100 µM (inactive)
SW-620
  GI50: > 100 µM (inactive)
Hs-578T
  GI50: > 100 µM (inactive)
KM12
  GI50: > 100 µM (inactive)
RPMI-8226
  GI50: > 100 µM (inactive)
SK-MEL-2
  GI50: > 100 µM (inactive)
MDA-N
  GI50: > 100 µM (inactive)
UACC-257
  GI50: > 100 µM (inactive)
MDA-MB-231
  GI50: > 100 µM (inactive)
SN12C
  GI50: > 100 µM (inactive)
HOP-62
  GI50: > 100 µM (inactive)
HCT-15
  GI50: > 100 µM
MOLT-4
  GI50: > 100 µM (inactive)
UO-31
  GI50: > 100 µM (inactive)
SNB-75
  GI50: > 100 µM (inactive)
CCRF-CEM
  GI50: > 100 µM (inactive)
SF-539
  GI50: > 100 µM (inactive)
CAKI-1
  GI50: > 100 µM (inactive)
SF-268
  GI50: > 100 µM (inactive)
OVCAR-4
  GI50: > 100 µM (inactive)
ACHN
  GI50: > 100 µM (inactive)
NCI-H522
  GI50: > 100 µM (inactive)
LOX IMVI
  GI50: > 100 µM (inactive)
OVCAR-8
  GI50: > 100 µM (inactive)
SK-OV-3
  GI50: > 100 µM (inactive)
